pKd: −log10 of the molar value.
Target: Nur77 (Homo sapiens, UniProt P22736)
Assay: SPR
Assay type: binding

Nur77, sequence (P22736 360-598 limits assumed): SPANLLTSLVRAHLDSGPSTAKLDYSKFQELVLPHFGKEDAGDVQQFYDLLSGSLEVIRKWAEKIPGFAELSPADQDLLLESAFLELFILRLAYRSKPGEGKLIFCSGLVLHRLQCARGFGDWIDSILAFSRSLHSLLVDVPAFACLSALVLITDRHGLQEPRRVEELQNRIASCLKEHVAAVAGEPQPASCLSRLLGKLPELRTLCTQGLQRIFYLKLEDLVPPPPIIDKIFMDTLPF

pKd: 6.42
Structure (SMILES): CCCCCCCC(=O)c1cc(OC)c(OC)c(OC)c1CC(=O)OCC [TMPA]
